The experiment in a line: Body weight change in OVA allergic airway model. To be noted: OVA+AKBA mice, 100 mg/kg AKBA by gavage, beginning to end of experiment; mean±SD. It counts as in vivo, BALB/cJ female mice. The source says: Eight-week-old BALB/cJ female mice were purchased from the Jackson Laboratory (Bar Harbor, ME, US) and housed in plastic cages with corncob bedding at the University of Connecticut Health (Farmington, CT.). Animal rooms maintained a 12-h light/dark cycle and were pathogen free. Mice were fed a 18% protein rodent diet (18.6% protein, 6.2% fat, 44.2% carbohydrate, 3.5% soluble fiber, 14.7% total fiber, 5.3% ash) purchased from Envigo (Indianapolis, IN, US) and supplied autoclaved water. Allergic airway phenotype was induced by using an ovalbumin (OVA, hen egg) sensitization and challenge model as previously described with modifications [Beigelman, A. et al. Azithromycin attenuates airway inflammation in a noninfectious mouse model of allergic asthma. Chest 136, 498-506 (2009)]. Briefly (FIG. 1), two groups of mice (OVA control and OVA+AKBA) were sensitized with intraperitoneal ovalbumin plus alum on days 0 and 7, challenged for 3 days (day 14 to day 17) via nebulized OVA at 1% in PBS for 30 mins, and harvested 48 hr after final challenge. Supplementation groups (OVA+AKBA) were given 100 mg/kg of water soluble AKBA (pH 7) (PLT Health Solutions, Morristown, NJ, US) in autoclaved mouse water, via gavage, every other day for 10 days and then every day for the remainder of the experiment (9 days). OVA control and naïve mouse continued to receive normal autoclaved mouse water. […]

In the case of `CC(=O)O[C@@H]1CC[C@@]2(C)[C@@H](CC[C@]3(C)[C@@H]2C(=O)C=C2[C@@H]4[C@@H](C)[C@H](C)CC[C@]4(C)CC[C@]23C)[C@@]1(C)C(=O)O` [AKBA, 3-O-acetyl-11-keto-b-boswellic acid], the “total average weight change, % of starting weight” value is on record as −2.32±4.19%.
